The term Km denotes the substrate concentration at which the rate is half of its maximum.

Data on two molecules can be found in article PMC5663093, “Bioprospecting of novel thermostable β-glucosidase from Bacillus subtilis RA10 and its application in biomass hydrolysis” (Biotechnology for Biofuels, 2017).

In test [1] the target is T1, BglB (β-glucosidase from B. subtilis RA10) (Bacillus subtilis, UniProt P42403).
T1 construct: gene bglC; full-length GH1 gene (1437 bp, start MIHKKQG, end TNGKSL fixed by degenerate primers) in pET28a+ (BamHI/SalI), E. coli BL21(DE3); Asn169-Glu170, nucleophile Glu377
T1 sequence (P42403 whole entry): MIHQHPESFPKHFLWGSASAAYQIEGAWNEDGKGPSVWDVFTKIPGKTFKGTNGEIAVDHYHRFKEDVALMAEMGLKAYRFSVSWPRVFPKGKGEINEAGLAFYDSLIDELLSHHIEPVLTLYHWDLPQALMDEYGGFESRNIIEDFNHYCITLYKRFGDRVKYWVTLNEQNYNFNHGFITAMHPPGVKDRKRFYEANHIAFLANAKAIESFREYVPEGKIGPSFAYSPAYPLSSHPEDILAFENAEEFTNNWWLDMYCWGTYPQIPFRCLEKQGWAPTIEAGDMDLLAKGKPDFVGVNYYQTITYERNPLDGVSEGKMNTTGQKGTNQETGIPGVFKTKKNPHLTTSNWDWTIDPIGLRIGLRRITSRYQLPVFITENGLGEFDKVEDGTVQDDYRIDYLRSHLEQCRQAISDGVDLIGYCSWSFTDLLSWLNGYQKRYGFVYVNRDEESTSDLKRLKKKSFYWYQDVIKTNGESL
Kind of test: β-glucosidase activity with added glucose ([…]). The test is classed as biochemical. Conditions: inhibitor (product); weak inhibition.

For test [2], the target named is T1, BglB (β-glucosidase from B. subtilis RA10). The experiment in a line: Michaelis-Menten nonlinear regression, p-nitrophenol release. The test is classed as biochemical. To be noted: 50 mM citrate pH 5.0; 0.5-5.0 mM substrate.

As for `OC[C@H]1OC(O)[C@H](O)[C@@H](O)[C@@H]1O` (stereo partly drawn) [D-glucose], the “% activity retained at 1000 mM” value in test [1] came to 70%.
Regarding `O=[N+]([O-])c1ccc(O[C@@H]2O[C@H](CO)[C@@H](O)[C@H](O)[C@H]2O)cc1` [pNPG, p-nitrophenyl-β-D-glucopyranoside], the Km in test [2] was determined as 3.9 ± 0.2 mM.
